{"source": "patent US4318847A", "about": "“Physiologically active tetrapeptides” (Zaidan Hojin Biseibutsu Kagaku Kenkyu Kai, priority 1979, dated 1982)", "origin": "cited, not measured here", "key": {"[1]": {"molecular_target": "aminopeptidase A (Homo sapiens, UniProt Q07075)", "sequence (Q07075 whole entry, species assumed)": "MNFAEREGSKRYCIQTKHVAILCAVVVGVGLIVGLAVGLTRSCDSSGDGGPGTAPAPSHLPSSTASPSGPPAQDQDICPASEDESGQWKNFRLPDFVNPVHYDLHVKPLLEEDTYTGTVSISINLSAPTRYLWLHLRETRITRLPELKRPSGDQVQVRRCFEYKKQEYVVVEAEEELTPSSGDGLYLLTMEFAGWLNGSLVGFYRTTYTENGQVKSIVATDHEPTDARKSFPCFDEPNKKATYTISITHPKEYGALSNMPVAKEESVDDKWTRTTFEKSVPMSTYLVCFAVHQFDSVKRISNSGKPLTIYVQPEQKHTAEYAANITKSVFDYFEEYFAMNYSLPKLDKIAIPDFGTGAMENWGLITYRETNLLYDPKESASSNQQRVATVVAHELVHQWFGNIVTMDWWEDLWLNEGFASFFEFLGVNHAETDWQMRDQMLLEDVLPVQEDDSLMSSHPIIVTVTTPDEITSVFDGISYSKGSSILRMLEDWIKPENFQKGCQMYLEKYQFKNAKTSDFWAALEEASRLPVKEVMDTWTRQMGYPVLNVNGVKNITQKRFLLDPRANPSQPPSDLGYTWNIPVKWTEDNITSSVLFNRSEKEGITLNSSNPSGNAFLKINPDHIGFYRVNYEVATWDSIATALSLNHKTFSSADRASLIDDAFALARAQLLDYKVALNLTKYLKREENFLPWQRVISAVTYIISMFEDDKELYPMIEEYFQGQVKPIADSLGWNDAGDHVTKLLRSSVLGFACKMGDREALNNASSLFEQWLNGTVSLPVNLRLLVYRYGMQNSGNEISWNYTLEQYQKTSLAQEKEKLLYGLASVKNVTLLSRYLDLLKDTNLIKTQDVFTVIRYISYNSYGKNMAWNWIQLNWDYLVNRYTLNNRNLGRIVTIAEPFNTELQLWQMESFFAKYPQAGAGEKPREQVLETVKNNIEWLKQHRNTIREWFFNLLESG", "conditions": "prior art; cited from earlier work"}, "[2]": {"molecular_target": "leucine aminopeptidase (Homo sapiens, UniProt P28838)", "sequence (P28838 whole entry)": "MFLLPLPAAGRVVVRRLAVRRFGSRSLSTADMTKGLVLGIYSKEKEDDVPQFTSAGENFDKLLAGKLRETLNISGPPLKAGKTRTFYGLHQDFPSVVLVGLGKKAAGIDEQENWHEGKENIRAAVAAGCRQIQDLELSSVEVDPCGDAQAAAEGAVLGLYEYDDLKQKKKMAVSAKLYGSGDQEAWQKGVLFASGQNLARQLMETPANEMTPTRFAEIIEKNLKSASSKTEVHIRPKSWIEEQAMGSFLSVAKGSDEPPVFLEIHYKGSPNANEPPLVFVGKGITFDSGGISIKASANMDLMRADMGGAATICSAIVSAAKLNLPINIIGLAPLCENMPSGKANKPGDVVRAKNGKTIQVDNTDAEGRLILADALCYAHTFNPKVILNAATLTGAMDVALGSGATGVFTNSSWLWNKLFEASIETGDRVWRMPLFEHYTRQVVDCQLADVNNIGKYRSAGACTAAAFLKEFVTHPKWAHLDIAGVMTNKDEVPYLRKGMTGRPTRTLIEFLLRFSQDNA", "conditions": "prior art, U.S. Pat. No. 4,029,547; cited from earlier work"}, "[3]": {"molecular_target": "aminopeptidase B (Homo sapiens, UniProt Q9H4A4)", "sequence (Q9H4A4 whole entry, species assumed)": "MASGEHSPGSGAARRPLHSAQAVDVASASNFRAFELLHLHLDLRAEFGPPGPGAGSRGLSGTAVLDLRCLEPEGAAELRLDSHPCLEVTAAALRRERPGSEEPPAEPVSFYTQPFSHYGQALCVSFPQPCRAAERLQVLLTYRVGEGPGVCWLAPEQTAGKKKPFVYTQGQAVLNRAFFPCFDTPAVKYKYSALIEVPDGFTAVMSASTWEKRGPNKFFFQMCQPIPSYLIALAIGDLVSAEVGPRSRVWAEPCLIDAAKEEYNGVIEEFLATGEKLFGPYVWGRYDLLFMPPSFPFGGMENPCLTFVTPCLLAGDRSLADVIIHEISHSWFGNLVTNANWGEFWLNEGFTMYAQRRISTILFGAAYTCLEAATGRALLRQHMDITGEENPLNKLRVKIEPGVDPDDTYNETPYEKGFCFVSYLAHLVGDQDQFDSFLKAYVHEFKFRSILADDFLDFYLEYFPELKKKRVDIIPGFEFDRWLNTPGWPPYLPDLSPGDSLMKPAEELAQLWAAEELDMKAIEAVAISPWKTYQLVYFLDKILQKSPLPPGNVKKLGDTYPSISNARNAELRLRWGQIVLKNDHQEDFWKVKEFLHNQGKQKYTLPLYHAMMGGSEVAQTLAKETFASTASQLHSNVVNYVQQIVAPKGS", "conditions": "prior art, U.S. Pat. No. 4,029,547; cited from earlier work"}, "[4]": {"molecular_target": "T1, papain (Carica papaya, UniProt P00784)", "T1 sequence (P00784 134-345)": "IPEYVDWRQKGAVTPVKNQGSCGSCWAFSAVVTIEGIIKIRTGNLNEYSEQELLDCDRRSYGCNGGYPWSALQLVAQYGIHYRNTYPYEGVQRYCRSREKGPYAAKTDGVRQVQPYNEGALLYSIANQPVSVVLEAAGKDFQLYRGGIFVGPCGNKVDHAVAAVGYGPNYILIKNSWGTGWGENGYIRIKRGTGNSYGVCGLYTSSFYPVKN", "conditions": "prior art; cited from earlier work"}, "[5]": {"molecular_target": "T2, trypsin (Bos taurus, UniProt P00760)", "T2 construct": "gene PRSS1", "T2 sequence (P00760 24-246)": "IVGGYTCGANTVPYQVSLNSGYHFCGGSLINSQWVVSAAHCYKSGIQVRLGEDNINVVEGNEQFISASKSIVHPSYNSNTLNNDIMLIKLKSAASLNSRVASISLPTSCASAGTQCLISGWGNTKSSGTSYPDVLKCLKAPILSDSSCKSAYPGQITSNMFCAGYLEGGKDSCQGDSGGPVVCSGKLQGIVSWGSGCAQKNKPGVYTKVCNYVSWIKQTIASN", "conditions": "prior art; cited from earlier work"}, "[6]": {"molecular_target": "pepsin (Homo sapiens, UniProt P0DJD8)", "sequence (P0DJD8 63-388)": "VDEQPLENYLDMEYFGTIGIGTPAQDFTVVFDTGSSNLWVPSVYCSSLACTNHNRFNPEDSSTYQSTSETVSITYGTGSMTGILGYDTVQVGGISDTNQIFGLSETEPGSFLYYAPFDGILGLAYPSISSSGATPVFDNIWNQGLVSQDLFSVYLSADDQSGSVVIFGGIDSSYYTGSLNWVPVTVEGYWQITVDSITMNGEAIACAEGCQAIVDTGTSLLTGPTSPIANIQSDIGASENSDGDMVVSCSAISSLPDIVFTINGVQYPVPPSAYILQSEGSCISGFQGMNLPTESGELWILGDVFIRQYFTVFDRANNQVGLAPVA", "conditions": "prior art; cited from earlier work"}}, "note": "*1 amine or outer side, *2 acyl side, *3 side chain or, on linkers, in order; H or OH if unused. Where a SMILES comes first, the peptide text is derived from it. [ ]: non-standard residue; d: D form. The star is where a group is joined. Sta = CC(C)C[C@H](N)[C@@H](O)CC(=O)O; Isovaleryl = CC(C)CC(=O)*; CO = O=C([*:1])[*:2]"}
{"smiles": "CC(C)C[C@H](NC(=O)[C@@H](O)[C@H](N)Cc1ccccc1)C(=O)O", "note": "[Bestatin, [(2S,3R)-3-amino-2-hydroxy-4-phenylbutanoyl]-L-leucine]", "values": [{"measurement": "inhibition of aminopeptidase A", "setting": "[1]", "result": "does not have any inhibitory effect"}, {"measurement": "inhibition of leucine aminopeptidase", "setting": "[2]", "result": "inhibits"}, {"measurement": "inhibition of aminopeptidase B", "setting": "[3]", "result": "inhibits"}]}
{"smiles": "CC(C)[C@H](NC(=O)[C@H](CCCNC(=N)N)NC(=O)N[C@@H](Cc1ccccc1)C(=O)O)C(=O)N[C@H](C=O)CCCNC(=N)N", "note": "[antipain] ({Phe-CO}-Arg-Val-Arg-aldehyde)", "values": [{"measurement": "inhibition of papain", "setting": "[4]", "result": "inhibit"}]}
{"smiles": "CC(=O)N[C@@H](CC(C)C)C(=O)N[C@@H](CC(C)C)C(=O)N[C@H](C=O)CCCNC(=N)N", "note": "[leupeptin]", "values": [{"measurement": "inhibition of trypsin", "setting": "[5]", "result": "inhibit"}]}
{"smiles": "CC(C)CC(=O)N[C@H](C(=O)N[C@H](C(=O)N[C@@H](CC(C)C)[C@@H](O)CC(=O)N[C@@H](C)C(=O)N[C@@H](CC(C)C)[C@@H](O)CC(=O)O)C(C)C)C(C)C", "note": "[pepstatin] (Isovaleryl-VV[Sta]A[Sta]-OH)", "values": [{"measurement": "inhibition of pepsin", "setting": "[6]", "result": "inhibit"}]}
